Measured values: patent US8889660B2, “Methods for treating obesity or an obesity related condition” (Case Western Reserve University, priority 2010, dated 2014)
Entries after “also recorded” stand apart in the source; their conditions may differ.

Columns and labels:
[1] = test system: retinoic acid receptor (RAR); experiment: Activation of retinoic acid response element (RARE) / RAR; type: cell-based; conditions: FIGS. 1A-B, 7 and 8
Source text: FIG. 7 is a histogram showing the activation of retinoic acid response element (RARE) by all-trans-retinol (ROL), (13R)-all-trans-13,14-dihydroretinol (DROL R) and (13S)-all-trans-13,14-dihydroretinol (DROL S);
FIG. 8 is a histogram showing the activation of retinoic acid response element (RARE) by all-trans-retinoic acid (RA), (13R)-all-trans-13,14-dihydroretinoic acid (DRA R) and (13S)-all-trans-13,14-dihydroretinoic acid (DRA S); and
The at least one receptor may also include a retinoic acid receptor (RAR), such as RAR-α, RAR-β and RAR-γ which, when activated, translocates to a cell nucleus, binds to hormone response element on DNA, and elicits expression or transexpresssion of gene products. Alternatively, at least one response element, such as the RAR response element (RARE), can be activated.

[2] = target: retinol binding protein 4 (RBP4) (Homo sapiens, UniProt P02753); experiment: Binding to RBP4 by fluorescence quenching; conditions: FIG. 9
Source text: FIG. 9 is a series of graphs showing the binding of (R)-all-trans-13,14-dihydroretinol and (S)-all-trans-13,14-dihydroretinol to RBP4, as determined by fluorescence quenching.
In another aspect of the present invention, the marker corresponding to the level and/or activity of an all-trans-retinol:all-trans-13,14-dihydroretinol saturase polypeptide may comprise a metabolite, such as a retinoid, associated with all-trans-retinol:all-trans-13,14-dihydroretinol saturase activity. The marker can include, for example, a retinoid having a saturated C13-14 double bond. More particularly, the retinoid having a saturated C13-14 double bond can include all-trans-13,14-dihydroretinol and/or all-trans-13,14-dihydrotretinoic acid. […] Increased levels of RBP4 are associated with the metabolic syndrome, diabetic disease and correlate with increased insulin resistance, obesity and visceral adiposity. Various techniques known in the art may be used to detect dihydroretinoid metabolite levels in a tissue sample, including, but not limited to, chromatography-based methods, electrophoresis and sedimentation, mass spectroscopy, and/or antibody-based methods. […]

[3] = target: T1, G-protein-coupled receptor 40 (GPR40) (Homo sapiens, UniProt O14842); experiment: Calcium responses of GPR40-expressing cells (receptor screening); type: cell-based; conditions: calcium responses of GPR40 and Ga16 cells, FIGS. 1A-B
T1 construct: expressed in transfected cells; host or cells: GPR40-expressing recombinant cells
Method: FIGS. 1A-B are a series of histographs showing the screening of potential receptors for all-trans-13,14-dihydroretinoic acid. FIG. 1A is a histogram showing calcium responses of G-protein-coupled receptor 40 and Ga16 cells to 100 μM fatty acids and retinoic acids. FIG. 2A is a histogram showing calcium responses to retinoic acid compounds at 10 μM;
The activation of GPR40 by all-trans-13,14-dihydroretinoic acid is studied in vitro by measuring the calcium flux and internalization of GPR40 in response to all-trans-13,14-dihydroretinoic in GPR40-expressing recombinant cells. In collaboration with Dr. de Lera University of Vigo, Spain, we have produced synthetic enantiomerically pure (R) or (S) all-trans-13,14-dihydroretinol and all-trans-13,14-dihydroretinoic acid and we have determined the stereospecificity of the RetSat catalyzed reaction. Activation of GPR40 by all-trans-13,14-dihydroretinoic acid leading to secretion of insulin is studied by measuring the level of secreted insulin from INS-1 insulinoma cells or from primary pancreatic β-cells primed with all-trans-13,14-dihydroretinoic acid.

wild type mice = experiment: Injection in wild type mice, glycemia; type: in vivo

T1 sequence (O14842 whole entry, species assumed): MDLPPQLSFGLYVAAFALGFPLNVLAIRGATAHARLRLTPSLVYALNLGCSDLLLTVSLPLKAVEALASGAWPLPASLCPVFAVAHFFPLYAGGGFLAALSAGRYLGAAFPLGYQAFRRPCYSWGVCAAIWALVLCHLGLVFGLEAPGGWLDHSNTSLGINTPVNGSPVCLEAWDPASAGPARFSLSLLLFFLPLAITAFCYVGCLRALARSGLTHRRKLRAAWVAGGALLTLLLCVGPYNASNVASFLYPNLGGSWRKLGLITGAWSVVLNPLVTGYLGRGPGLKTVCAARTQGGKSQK

SMILES	activation of retinoic acid receptor (RAR/RARE) [1]	binding to RBP4 [2]	activation of GPR40 [3]	effect on blood glucose after injection (wild type mice)
CC1=C(/C=C/C(C)=C/C=C/[C@H](C)CC(=O)O)C(C)(C)CCC1 (stereo in doubt) [(R)-all-trans-13,14-dihydroretinoic acid]	can activate RAR	–	–	–
CC1=C(/C=C/C(C)=C/C=C/[C@H](C)CCO)C(C)(C)CCC1 [(R)-all-trans-13,14-dihydroretinol, (13R)-13,14-Dihydroretinol]	can also activate RAR	associated with the carrier protein retinol binding protein 4 (RBP4)	–	–
CC1=C(/C=C/C(C)=C/C=C/C(C)CCO)C(C)(C)CCC1 (stereo not drawn) [all-trans-13,14-dihydroretinol]	–	–	–	prolonged hypoglycemia

The next lines start with results.

activation of retinoic acid receptor (RAR/RARE) [1]	SMILES	binding to RBP4 [2]	activation of GPR40 [3]	effect on blood glucose after injection (wild type mice)
can activate RAR	CC1=C(/C=C/C(C)=C/C=C/[C@@H](C)CC(=O)O)C(C)(C)CCC1 (stereo in doubt) [(S)-all-trans-13,14-dihydroretinoic acid]	–	–	–
can also activate RAR	CC1=C(/C=C/C(C)=C/C=C/[C@@H](C)CCO)C(C)(C)CCC1 [(S)-all-trans-13,14-dihydroretinol, (13S)-13,14-Dihydroretinol]	associated with the carrier protein retinol binding protein 4 (RBP4)	–	–
activator	CC1=C(/C=C/C(C)=C/C=C/C(C)CC(=O)O)C(C)(C)CCC1 (stereo not drawn) [all-trans-13,14-dihydroretinoic acid]	–	activator; also recorded: can be activated by all-trans-13,14-dihydroretinoic acid	–
